US4931447A, “Cycloalkylamides of (8β)-1-alkyl-6-(substituted) ergolines” (Eli Lilly and Company, priority 1989, dated 1990)

Test system: Male Rats
Experiment: Copulatory performance of male rats after various time periods following subcutaneous administration at 10 mcg/kg (Table VII)
Format: in vivo, rat (male Sprague-Dawley)
Conditions: 10 mcg/kg s.c.
Experimental: Adult male rats of the Sprague-Dawley strain were used in these studies. The sexual behavior evaluations were conducted at 2-week intervals beginning at 6 months of age and ending at 12 months of age. During the initial screening process, the male rats of various levels of sexual performance were selected for compound testing. […] Prior to treatment with a drug solution, each male rat was required to have at least two consecutive vehicle tests with similar sexual performance. Following each compound testing, additional vehicle tests were performed.
The mating tests were performed during the dark phase of the lighting cycle using red light illumination. Each behavioral test was initiated with the introduction of a receptive female rat into the arena and was terminated either 30 minutes later or immediately following the first postejaculatory mount. The indiees of mating performance that were evaluated for the rats capable of ejaculation included mount latency (the time interval from the introduction of the female rat to the first mount); intromission latency (the time interval from the introduction of the female rat to the first intromission); ejaculatory latency (the time interval from intromission to ejaculation); postejaculatory interval (the time from ejaculation to the next mount); mount frequency (the total number of mounts with or without intromission prior to ejaculation); intromission frequency (the number of mounts with intromission prior to ejaculation); intromission efficiency (the intromission frequency divided by the mount frequency); copulatory rate (the number of mounts per minute); copulatory frequency (the number of mounts prior to ejaculation); and copulatory efficiency (the number of mounts with intromission divided by the total number of mounts).
Each male rat was given a solution containing either the vehicle alone in water or the compound of Example 1, (8β)-N-cyclohexyl-1-isopropyl-6-methylergoline-8-carboxamide, in the same vehicle. Vehicle was made of 1 mM (millimolar) acetic acid and 1 mM ascorbic acid.
The results of these studies are set forth below in Tables II-VII. In the Tables "N" is the number of animals used to generate the data, the average of which is provided. The specific description of the test performed is set forth in the heading of the Tables.
Of Example 1 at 10 mcg/kg After Various Time Periods

## CC(C)n1cc2c3c(cccc31)[C@H]1C[C@@H](C(=O)NC3CCCCC3)CN(C)[C@@H]1C2 [Example 1, (8β)-N-Cyclohexyl-1-isopropyl-6-methylergoline-8-carboxamide]
0.5 hours, N = 11, control 1.7 ± 0.2, significant (*)
  Copulatory Rate: 2.6 ± 0.4 mounts/minute
0.5 hours, N = 11, control 368.3 ± 23.0
  Postejaculatory Interval: 333.9 ± 10.9 s
0.5 hours, N = 11, control 850.4 ± 99.2, significant (*)
  Ejaculatory Latency: 454.1 ± 78.4 s
8.0 hours, N = 11, control 2.6 ± 0.2, significant (*)
  Copulatory Rate: 3.9 ± 0.5 mounts/minute
8.0 hours, N = 11, control 349.5 ± 16.8, significant (*)
  Postejaculatory Interval: 320.1 ± 17.0 s
8.0 hours, N = 11, control 653.1 ± 61.7, significant (*)
  Ejaculatory Latency: 402.3 ± 59.7 s
24.0 hours, N = 15, control 2.0 ± 0.3, significant (*)
  Copulatory Rate: 2.8 ± 0.4 mounts/minute
24.0 hours, N = 15, control 422.4 ± 25.5
  Postejaculatory Interval: 391.7 ± 18.7 s
24.0 hours, N = 15, control 815.5 ± 64.6, significant (*)
  Ejaculatory Latency: 604.1 ± 68.4 s
48.0 hours, N = 11, control 2.4 ± 0.2, significant (*)
  Copulatory Rate: 2.5 ± 0.2 mounts/minute
48.0 hours, N = 11, control 364.8 ± 27.8, significant (*)
  Postejaculatory Interval: 365.4 ± 20.2 s
48.0 hours, N = 11, control 591.0 ± 33.8
  Ejaculatory Latency: 531.8 ± 60.6 s
